Results: publication PMC8490629, “Metabolites of Procyanidins From Litchi Chinensis Pericarp With Xanthine Oxidase Inhibitory Effect and Antioxidant Activity” (Frontiers in Nutrition, 2021)
Like-named read-outs stand apart in the source and are kept apart here. Marks after values point to notes of the source that are not given here.

How the values were obtained:
[1] = Urinary excretion of procyanidins and metabolites in rats after oral LPPC (HPLC / LC-MS); type: in vivo, rat; details: for Urinary excretion, phenolic acids / Urinary excretion, procyanidin (% to oral dose): rat urine 0-24 h after oral LPPC 300 mg/kg, after glucuronidase/sulfatase deconjugation; for Urinary excretion as share of the oral intake: rat urine, oral LPPC 300 mg/kg bw
Procedure: Male Sprague-Dawley rats weighing 220 ± 20 g were randomly divided into two groups (n = 20) with 10 rats in each group. Prior to administration, animals were deprived of food for 12 h, but had access to deionized water. The LPPC was dissolved in physiological saline and administered orally to rats at a dose of 300 mg/kg body weight. In addition, the physiological saline was administered orally to the rats in another group as control. All the rats were placed in metabolic cages, each rat per cage (Jiayuan Technology Co. Ltd., Beijing, China). The samples of urine excreted from 0 to 24 h postadministration were collected from the bottom of the metabolic cage under chilled conditions using an ice bath and stored at −80°C before analysis, referring to the method described previously ([38]).
The sample of urine was centrifuged at 4,000 r/min for 10 min at 4°C, and the supernatant was collected. The supernatant was acidified to pH = 5.5 with 0.6 mol/l acetic acid and incubated at 37°C for 60 min in the presence of 10 KU β-glucuronidase with the activity of sulfatase. After further acidification to pH = 2 with 6 mol/l HCl, the samples were directly extracted by ethyl acetate × 3. The resulting supernatant was dried under vacuum by rotatory evaporation at 40°C until the ethyl acetate was completely removed and dissolved in 1 ml of 50% methanol. Then, the solution was purified by the solid phase extraction, and the residue was redissolved in methanol and analyzed by LC-MS as described by Li et al. with modifications ([39]).
Selected samples were analyzed on an Agilent 1100 LC-ESI-MS system (Agilent Technologies Co. Ltd., Foster City, California, USA) to identify metabolites in urine. A VP-ODS column (150 × 4.6 mm ID, 5 μm particle size, Shimadzu Co., Kyoto, Japan) was used and 20 μl solution of the sample was injected. The mobile phases consisted of 0.4% (v/v) aqueous acetic acid as A and acetonitrile as B with the following linear gradient: from 5 to 35% B in the first 40 min, from 35 to 50% B in the next 5 min, from 50 to 80% B in the next 5 min, and from 80 to 5% B in the next 5 min, and re-equilibrated with 5% B for 5 min before next injection. The flow rate was 0.2 ml/min and the absorbance of the eluate was monitored at 280 nm. Mass spectra were collected using an electrospray ionization (ESI) ion source in the negative mode under the following conditions: orifice voltage, −30 V; nebulizing pressure, 30 psi; heat capillary temperature, 275°C; and mass range, m/z 100-1,200.

xanthine oxidase = target: T1, xanthine oxidase (Bos taurus, UniProt P80457); assay: Xanthine oxidase inhibition assay (uric acid production from xanthine, 295 nm); type: biochemical; details: for IC50: read-out: IC50 (μg/ml) xanthine oxidase (converted); for inhibition at 200 µg/mL: read-out: Inhibition (%) at 200 μg/ml
T1 construct: purchased Sigma (St. Louis, MO, USA)
T1 sequence (P80457 2-1332 limits assumed): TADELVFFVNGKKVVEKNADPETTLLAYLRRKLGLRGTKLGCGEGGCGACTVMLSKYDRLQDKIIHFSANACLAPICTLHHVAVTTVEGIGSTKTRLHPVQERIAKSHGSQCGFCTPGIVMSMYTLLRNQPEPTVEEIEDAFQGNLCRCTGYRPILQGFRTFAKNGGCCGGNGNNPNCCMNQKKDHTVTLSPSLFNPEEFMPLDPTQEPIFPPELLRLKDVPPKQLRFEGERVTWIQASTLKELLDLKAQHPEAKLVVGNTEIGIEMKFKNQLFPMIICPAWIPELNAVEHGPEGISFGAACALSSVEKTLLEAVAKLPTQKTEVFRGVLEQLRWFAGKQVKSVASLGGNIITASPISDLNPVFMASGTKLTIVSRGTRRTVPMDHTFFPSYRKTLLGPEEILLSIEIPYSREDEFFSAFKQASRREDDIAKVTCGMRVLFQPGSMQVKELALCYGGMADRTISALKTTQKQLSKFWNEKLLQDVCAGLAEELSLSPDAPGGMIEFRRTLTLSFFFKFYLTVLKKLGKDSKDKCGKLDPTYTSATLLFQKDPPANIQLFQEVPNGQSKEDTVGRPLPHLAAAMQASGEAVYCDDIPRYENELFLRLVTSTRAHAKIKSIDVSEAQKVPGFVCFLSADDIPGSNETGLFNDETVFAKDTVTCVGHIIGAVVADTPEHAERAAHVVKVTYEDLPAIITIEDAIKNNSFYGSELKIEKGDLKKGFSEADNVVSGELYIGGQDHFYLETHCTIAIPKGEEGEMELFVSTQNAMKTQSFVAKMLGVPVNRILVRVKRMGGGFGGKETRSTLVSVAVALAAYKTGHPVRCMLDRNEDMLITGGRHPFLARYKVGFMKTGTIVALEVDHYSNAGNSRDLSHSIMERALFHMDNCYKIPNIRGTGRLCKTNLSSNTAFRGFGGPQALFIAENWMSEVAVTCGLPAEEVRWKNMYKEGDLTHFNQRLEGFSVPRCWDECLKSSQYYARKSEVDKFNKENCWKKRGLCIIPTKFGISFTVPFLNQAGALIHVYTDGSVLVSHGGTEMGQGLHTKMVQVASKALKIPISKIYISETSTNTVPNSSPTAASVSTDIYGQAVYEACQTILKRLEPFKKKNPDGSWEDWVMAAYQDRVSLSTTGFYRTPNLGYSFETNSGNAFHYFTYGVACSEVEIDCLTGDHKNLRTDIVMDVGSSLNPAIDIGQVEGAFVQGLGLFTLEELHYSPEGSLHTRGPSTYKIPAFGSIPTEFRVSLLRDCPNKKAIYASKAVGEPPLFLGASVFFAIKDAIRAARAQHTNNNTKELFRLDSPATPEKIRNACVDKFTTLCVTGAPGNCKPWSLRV

[2] = DPPH radical scavenging activity
Procedure: 1, 1-Diphenyl-2-picrylhydrazyl radical scavenging activity was determined referring to the method described previously ([41]). Litchi pericarp and phenolic acids were dissolved in 1.0 ml of deionized water at various concentrations ranging from 2.0 to 100.0 μg/ml. Then, the solution of the sample was mixed with 1.0 ml of freshly prepared 0.2 mM DPPH ethanolic solution. Control in the experiment was prepared by the same reagent without the sample. All the tubes were incubated at 37°C for 30 min in the dark, and the final solution was recorded at 517 nm. The DPPH radical scavenging activity was calculated using the following equation:
DPPH radical scavenging rate (%) =(Acontrol-Asample)/Acontrol × 100

[3] = Hydroxyl radical scavenging activity
Procedure: Hydroxyl radical scavenging activity was assessed according to the method of Dong et al. ([42]) with modifications. The reagents and samples were added strictly obeying following order: 0.25 ml 1.5 mM phenanthroline ethanolic solution, 0.5 ml phosphoric acid buffer (pH = 7.4), 0.25 ml 1.5 mM freshly prepared ferrous sulfate solution, 0.5 ml sample (0–0.5 mg), and 0.25 ml 0.01% H2O2. The injured tubes in the experiment were prepared by the same reagents except samples, while control was carried out by adding sample without H2O2. The mixtures were shaken and incubated at 37°C for 1 h, and then measured at 536 nm. The hydroxyl radical scavenging activity was calculated using the following equation:
hydroxyl radical scavenging rate (%) =Asample-Ainjured/Acontrol-Ainjured ×100

SMILES: O=C(O)Cc1cccc(O)c1 [3-Hydroxyphenylacetic acid, 3-hydroxyphenylacetic acid]
- Urinary excretion, phenolic acids [1]: 46.98 ± 3.76 nmol
- IC50 (xanthine oxidase): > 1310 µM
- inhibition at 200 µg/mL (xanthine oxidase; xanthine oxidase, 200 μg/ml): 21.1 ± 1.78%
- IC50 (μg/ml) DPPH· [2]: 82.60 ± 1.95^h μg/ml
- IC50 (μg/ml) DPPH· ([2]; listed as 3-hydroxyphenylacetic acid): > 50 µg/mL
- IC50 (μg/ml) ·OH [3]: 803.47 ± 6.38^g μg/ml

SMILES: O=C(O)CCc1cccc(O)c1 [3-Hydroxyphenylpropionic acid, 3-hydroxyphenylpropionic acid]
- Urinary excretion, phenolic acids [1]: 12.87 ± 3.06 nmol
- IC50 (xanthine oxidase): > 1200 µM
- inhibition at 200 µg/mL (xanthine oxidase; xanthine oxidase, 200 μg/ml): 27 ± 1.44%
- IC50 (μg/ml) DPPH· [2]: 77.83 ± 0.93^g μg/ml
- IC50 (μg/ml) DPPH· ([2]; listed as 3-hydroxyphenylpropionic acid): > 50 µg/mL
- IC50 (μg/ml) ·OH [3]: 841.57 ± 4.45^h μg/ml

SMILES: O=C(O)CCc1ccc(O)cc1 [4-Hydroxyphenylpropionic acid, 4-hydroxyphenylpropionic acid]
- Urinary excretion, phenolic acids [1]: 60.54 ± 3.18 nmol
- IC50 (xanthine oxidase): > 1200 µM
- inhibition at 200 µg/mL (xanthine oxidase; xanthine oxidase, 200 μg/ml): 29.4 ± 0.75%
- IC50 (μg/ml) DPPH· [2]: 74.63 ± 1.40^f μg/ml
- IC50 (μg/ml) DPPH· ([2]; listed as 4-hydroxyphenylpropionic acid): > 50 µg/mL
- IC50 (μg/ml) ·OH [3]: 813.87 ± 5.48^g μg/ml

SMILES: Oc1cc(O)c2c(c1)O[C@H](c1ccc(O)c(O)c1)[C@H](O)C2 [(-)-Epicatechin, (-)-epicatechin]
- Urinary excretion, procyanidin (% to oral dose) [1]: 0.21 ± 0.04 % to oral dose
- Urinary excretion as share of the oral intake [1]: 0.21 ± 0.04 % (mol/mol)
- IC50 (xanthine oxidase): 201 µM
- Inhibition (%) at 200 μg/ml (xanthine oxidase; xanthine oxidase, 200 μg/ml): 78.63 ± 1.72^b %
- Inhibition (%) at 200 μg/ml (xanthine oxidase; xanthine oxidase, 200 μg/ml, listed as epicatechin): higher than 50%
- IC50 (μg/ml) DPPH· [2]: 5.43 ± 0.10^a μg/ml
- IC50 (μg/ml) ·OH [3]: 121.27 ± 1.80^a μg/ml

SMILES: Oc1cc(O)c2c(c1)OC1(c3ccc(O)c(O)c3)Oc3cc(O)c4c(c3C2C1O)OC(c1ccc(O)c(O)c1)C(O)C4 (stereo not drawn) [A-type dimer]
- Urinary excretion, procyanidin (% to oral dose) [1]: 0.54 ± 0.09 % to oral dose
- Urinary excretion as share of the oral intake [1]: 0.54 ± 0.09 % (mol/mol)
- IC50 (xanthine oxidase): 119 µM
- IC50 (μg/ml) DPPH· [2]: 5.86 ± 0.14^a μg/ml
- IC50 (μg/ml) ·OH [3]: 126.57 ± 2.58^a μg/ml

SMILES: Oc1cc(O)c2c(c1)OC1(c3ccc(O)c(O)c3)Oc3cc(O)c4c(c3C2C1O)OC(c1ccc(O)c(O)c1)C(O)C4c1c(O)cc(O)c2c1OC(c1ccc(O)c(O)c1)C(O)C2 (stereo not drawn) [A-type trimer]
- Urinary excretion, procyanidin (% to oral dose) [1]: 0.43 ± 0.02 % to oral dose
- Urinary excretion as share of the oral intake [1]: 0.43 ± 0.02 % (mol/mol)
- IC50 (xanthine oxidase): 86.6 µM
- inhibition at 200 µg/mL (xanthine oxidase; xanthine oxidase, 200 μg/ml): > 50%
- IC50 (μg/ml) DPPH· [2]: 8.00 ± 0.18^b μg/ml
- IC50 (μg/ml) ·OH [3]: 122.73 ± 2.35^a μg/ml

SMILES: Oc1ncnc2[nH]ncc12 [Allopurinol, reference compound]
- inhibition at 200 µg/mL (xanthine oxidase): 85.6 ± 3.13%

SMILES: O=C(O)/C=C/c1ccc(O)c(O)c1 [Caffeic acid, caffeic acid]
- Urinary excretion, phenolic acids [1]: 20.67 ± 2.68 nmol
- IC50 (xanthine oxidase): 531 µM
- IC50 (μg/ml) DPPH· [2]: 9.88 ± 0.55^c μg/ml
- IC50 (μg/ml) ·OH [3]: 161.47 ± 3.31^c μg/ml

SMILES: O=C(O)C1=C[C@@H](O)[C@@H](O)[C@H](O)C1 [Shikimic acid, shikimic acid]
- Urinary excretion, phenolic acids [1]: 27.22 ± 7.02 nmol
- IC50 (xanthine oxidase): 552 µM
- Inhibition (%) at 200 μg/ml (xanthine oxidase; xanthine oxidase, 200 μg/ml): 61.13 ± 0.81^f %
- inhibition at 200 µg/mL (xanthine oxidase; xanthine oxidase, 200 μg/ml): > 50%
- IC50 (μg/ml) DPPH· [2]: 8.96 ± 0.18b^c μg/ml
- IC50 (μg/ml) ·OH [3]: 186.53 ± 7.56^d μg/ml

SMILES: COc1cc(C(=O)O)ccc1O [Vanillic acid, vanillic acid]
- Urinary excretion, phenolic acids [1]: 6.62 ± 2.79 nmol
- IC50 (xanthine oxidase): > 1190 µM
- inhibition at 200 µg/mL (xanthine oxidase): 25 ± 1.47%
- IC50 (μg/ml) DPPH· [2]: 86.06 ± 1.33^i μg/ml
- IC50 (μg/ml) DPPH· ([2]; listed as vanillic acid): > 50 µg/mL
- IC50 (μg/ml) ·OH [3]: 897.33 ± 9.90^i μg/ml

SMILES: O=C(O)/C=C/c1cccc(O)c1 [m-Coumaric acid, m-coumaric acid]
- Urinary excretion, phenolic acids [1]: 39.01 ± 7.33 nmol
- IC50 (xanthine oxidase): 942 µM
- inhibition at 200 µg/mL (xanthine oxidase; xanthine oxidase, 200 μg/ml): 52.8 ± 1.57%
- IC50 (μg/ml) DPPH· [2]: 21.93 ± 1.25^e μg/ml
- IC50 (μg/ml) ·OH [3]: 256.43 ± 9.33^f μg/ml

SMILES: O=C(O)/C=C/c1ccc(O)cc1 [p-Coumaric acid, p-coumaric acid]
- Urinary excretion, phenolic acids [1]: 13.89 ± 1.65 nmol
- IC50 (xanthine oxidase): 852 µM
- inhibition at 200 µg/mL (xanthine oxidase; xanthine oxidase, 200 μg/ml): 57.4 ± 0.62%
- IC50 (μg/ml) DPPH· [2]: 16.53 ± 0.65^d μg/ml
- IC50 (μg/ml) ·OH [3]: 220.13 ± 4.57^e μg/ml
